“And” between values parts separate entries of the source, which are not always exact repeats. Identical values can stand only once.
Target: T1, hNCC(WT) (Homo sapiens, UniProt P55017)
T1 construct: expressed in transfected cells
T1 sequence (P55017 1-1021): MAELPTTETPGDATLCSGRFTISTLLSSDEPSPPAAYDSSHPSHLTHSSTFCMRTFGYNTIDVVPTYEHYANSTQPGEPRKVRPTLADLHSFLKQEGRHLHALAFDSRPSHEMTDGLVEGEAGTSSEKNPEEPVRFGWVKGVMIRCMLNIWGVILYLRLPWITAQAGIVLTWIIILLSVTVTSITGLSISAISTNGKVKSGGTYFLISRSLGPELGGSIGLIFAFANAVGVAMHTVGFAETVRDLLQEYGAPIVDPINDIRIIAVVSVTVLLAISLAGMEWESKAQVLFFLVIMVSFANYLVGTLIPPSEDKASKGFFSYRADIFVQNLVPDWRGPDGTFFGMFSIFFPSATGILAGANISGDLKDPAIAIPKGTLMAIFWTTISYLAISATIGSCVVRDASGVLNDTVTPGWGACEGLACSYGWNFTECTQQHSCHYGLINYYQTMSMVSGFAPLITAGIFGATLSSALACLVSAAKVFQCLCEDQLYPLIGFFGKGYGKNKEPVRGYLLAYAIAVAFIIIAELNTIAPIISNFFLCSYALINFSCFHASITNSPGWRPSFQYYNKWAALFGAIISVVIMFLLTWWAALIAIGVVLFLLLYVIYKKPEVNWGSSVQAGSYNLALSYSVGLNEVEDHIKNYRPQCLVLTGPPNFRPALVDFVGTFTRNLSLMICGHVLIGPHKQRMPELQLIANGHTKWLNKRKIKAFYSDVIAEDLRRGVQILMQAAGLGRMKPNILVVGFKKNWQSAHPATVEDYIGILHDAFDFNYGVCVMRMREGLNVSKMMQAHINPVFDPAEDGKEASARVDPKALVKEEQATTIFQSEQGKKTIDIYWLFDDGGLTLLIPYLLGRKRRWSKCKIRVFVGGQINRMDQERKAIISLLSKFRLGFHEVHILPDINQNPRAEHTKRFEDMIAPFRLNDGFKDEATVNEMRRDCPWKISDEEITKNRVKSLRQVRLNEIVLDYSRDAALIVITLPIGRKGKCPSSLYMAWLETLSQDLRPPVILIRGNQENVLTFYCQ
Test: 125I- uptake assay, HEK293S cells stably expressing hNCC(WT)
Format: cell-based
Conditions: for apparent affinity compared to polythiazide (times lower): hNCC(WT), Supplementary Fig. 2d
Description: HEK293S cell lines, cultured in 293 Freestyle medium (Life Technologies; plus 10% fetal bovine serum), stably expressing hNCC and its variants were generated following published protocols. Cells were transfected using Lipofectamine 3000 (Invitrogen) with a pSBbi-RP-based plasmid containing hNCC or its variants and the SB100X vector. Puromycin (2 μg/mL; Gemini Bio-Products) was used for selection of stable cell lines.
To prepare for the uptake experiment, cells were plated at 0.5 × 10^6 cells/well in 24-well plates one day in advance. To activate NCC, cells were treated with a chloride-free hypotonic solution composed of 67.5 mM sodium-, 2.5 mM potassium-, 0.25 mM magnesium-, and 0.25 mM calcium-gluconate, as well as 7.5 mM HEPES pH 7.4 (buffered using Tris) at 37 °C for 10 min[72]. After the activation step, the experiments were carried out at room temperature. Ten minutes before the start of ^125I^− uptake, 70 μM Bumetanide (Thermo Scientific Chemicals) and 100 μM 4,4′-diisothiocyanatostilbene-2,2′-disulfonic acid (DIDS; Sigma) were added to suppress background iodide uptake activity. Indicated thiazide diuretics were also added to the indicated concentrations 10 min before the start of ^125I^− uptake. The original buffer was switched to an uptake buffer composed of 135 mM Na-gluconate, 5 mM K-gluconate, 1 mM Mg-gluconate, 1 mM Ca-gluconate, 70 μM bumetanide, 100 μM DIDS, 1 mM NaI, 0.25 μCi/ml Na^125I (American Radiolabeled Chemicals, Inc.), and 15 mM HEPES pH 7.4 (buffered using Tris), in the presence or absence of thiazide diuretics to initiate ^125I^− uptake. The ^125I^− uptake process lasted 1 h and was stopped by two rapid washes using ice-cold 110 mM MgCl2. Cells lysed using 1% sodium dodecyl sulfate (SDS) were analyzed by scintillation counting.
To calculate the fold change of the half-maximal inhibitory concentration (IC50) between hNCC(WT) and different hNCC variants, individual dose-response curves were normalized first using the smallest mean and the value of the lowest concentration as 0% and 100%, respectively. The normalized data were then fitted using the “EC50 shift” nonlinear regression in GraphPad Prism 10 with the shared EC50Control assigned to be the IC50 of hNCC(WT). The following constraints were used in the EC50 shift analysis. The EC50Control was set to be shared across all curves under analysis and constrained to be greater than 0. The EC50Ratio was constrained to be greater than 0. The bottom, top, and HillSlope were constrained to be 0, 100, and −1, respectively. For Fig. 1f, g and Supplementary Fig. 2d, GraphPad Prism 10 was used to perform curve fitting and IC50 calculation for normalized data using y = 100/(1 + (x/IC50)).

[1] = thiazide-sensitive iodide uptake, HEK293S stable cells, 1 mM extracellular iodide

NS(=O)(=O)c1cc(C2(O)NC(=O)c3ccccc32)ccc1Cl (centres unmarked) [chlorthalidone]
apparent affinity compared to polythiazide (times lower): ~ 40 times | IC50 [1]: 23 nM

CC1Cc2ccccc2N1NC(=O)c1ccc(Cl)c(S(N)(=O)=O)c1 (centres unmarked) [indapamide]
IC50 (as quoted in reviewer comment on the earlier manuscript version): 9.3 nM | apparent affinity compared to polythiazide (times lower): ~ 16 times

CN1C(CSCC(F)(F)F)Nc2cc(Cl)c(S(N)(=O)=O)cc2S1(=O)=O (centres unmarked) [polythiazide]
IC50 [1]: 0.58 nM and ~0.5 nM

— paper PMC12365235, “Molecular mechanisms of thiazide-like diuretics-mediated inhibition of the human Na-Cl cotransporter” (Nature Communications, 2025)
